In patent US20110294736A1, “COMPOUNDS AND METHODS FOR THE TREATMENT OF AUTOIMMUNE AND INFLAMMATORY DISEASE” (THE PROVOST, FELLOWS AND SCHOLARS OF THE HOLY AND UNDIVIDED …, priority 2008, published 2011):

Tested on: BMDC
Test: IL-12p40, IL-23, IL-12p70 and IL-10 ELISA in BMDC with p38 or ERK inhibitor, Tri-DAP and LPS or CpG
Type: cell-based, murine
Conditions: ERK inhibitor 5 μM 30 minutes before Tri-DAP 100 μg/ml
Description: BMDC (1×10^6) were pretreated with the p38 inhibitor, SB203580 (5 μM—FIGS. 10-11), or the ERK inhibitor UO126 (5 μM—FIGS. 12-13) for 30 minutes prior to stimulation with Tri-DAP (100 μg/ml) or medium alone. After 2 hours the cells were then stimulated with LPS (100 ng/ml—FIGS. 10 and 12), with the TLR agonist CpG (5 μg/ml—FIGS. 11 and 13) or with medium alone. Supernatants were collected after 24 hours and IL-12p40, IL-23, IL-12p70 and IL-10 concentrations were quantified by ELISA.

## N#CC(=C(/N)Sc1ccccc1N)/C(C#N)=C(\N)Sc1ccccc1N [U0126, reference compound]
LPS 100 ng/ml
  enhancement of LPS induced IL-12p70 by Tri-DAP: only marginally affected
  enhancement of LPS induced IL-23 production by Tri-DAP: suppressed
LPS 100 ng/ml or CpG 5 μg/ml
  IL-10 production by Tri-DAP with LPS or with CpG: suppressed
